Our source for the Ratio Ki and Ki values is ChEMBL document CHEMBL3580564, “Semisynthetic Studies on and Biological Evaluation of N-Methyllaurotetanine Analogues as Ligands for 5-HT Receptors” (J Nat Prod, 2015).

The species entered for assay [1] is Homo sapiens. Description: Selectivity index, ratio of Ki for human recombinant 5-HT2A receptor to Ki for human recombinant 5-HT7 receptor.
Assay [2] concerns the target 5-hydroxytryptamine receptor 7 (Homo sapiens, UniProt P34969). The assay can be described thus: Displacement of [3H]LSD from human recombinant 5-HT7 receptor expressed in HEK cell membranes by radioligand binding assay. More on the design: species or system HEK293.
For assay [3], the target named is 5-hydroxytryptamine receptor 2A (Homo sapiens, UniProt P28223). Description: Displacement of [3H]ketanserin from human recombinant 5-HT2A receptor expressed in HEKT cell membranes by radioligand binding assay. It is filed as cell-based.
5-hydroxytryptamine receptor 2A, sequence (P28223 whole entry): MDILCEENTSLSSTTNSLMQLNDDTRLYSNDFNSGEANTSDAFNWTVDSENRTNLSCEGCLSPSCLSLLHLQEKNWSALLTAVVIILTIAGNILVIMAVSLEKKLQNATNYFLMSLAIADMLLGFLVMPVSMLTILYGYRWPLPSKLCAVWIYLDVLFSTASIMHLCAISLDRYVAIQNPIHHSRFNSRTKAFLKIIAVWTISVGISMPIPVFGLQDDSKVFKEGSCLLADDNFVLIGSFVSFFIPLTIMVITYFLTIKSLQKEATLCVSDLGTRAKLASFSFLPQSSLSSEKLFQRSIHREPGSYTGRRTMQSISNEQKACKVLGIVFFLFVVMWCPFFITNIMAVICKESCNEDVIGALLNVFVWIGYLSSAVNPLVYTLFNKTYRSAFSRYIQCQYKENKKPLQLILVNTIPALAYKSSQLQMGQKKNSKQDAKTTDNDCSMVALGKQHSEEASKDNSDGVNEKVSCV
For assay [4], the species on record is Homo sapiens. The assay can be described thus: Selectivity index, ratio of Ki for human recombinant 5-HT1A receptor to Ki for human recombinant 5-HT7 receptor.
For assay [5], the target named is T1, 5-hydroxytryptamine receptor 1A (Homo sapiens, UniProt P08908).
T1 sequence (P08908 whole entry): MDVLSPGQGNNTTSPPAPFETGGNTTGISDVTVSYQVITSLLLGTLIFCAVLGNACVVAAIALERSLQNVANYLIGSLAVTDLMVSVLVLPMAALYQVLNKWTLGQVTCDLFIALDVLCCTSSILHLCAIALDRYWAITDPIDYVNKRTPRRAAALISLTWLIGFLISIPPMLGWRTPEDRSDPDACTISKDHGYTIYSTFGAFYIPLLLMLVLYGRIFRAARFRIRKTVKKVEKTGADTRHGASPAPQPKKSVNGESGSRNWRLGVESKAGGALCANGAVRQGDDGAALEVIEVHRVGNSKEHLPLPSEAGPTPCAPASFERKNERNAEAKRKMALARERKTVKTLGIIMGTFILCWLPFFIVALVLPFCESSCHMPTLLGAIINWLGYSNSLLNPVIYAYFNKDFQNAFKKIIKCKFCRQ
The assay can be described thus: Displacement of [3H]Way100635 from human recombinant 5-HT1A receptor expressed in CHO cell membranes by radioligand binding assay.

The target in assay [6] is T2, 5-hydroxytryptamine receptor 1A (Homo sapiens) (UniProt P08908).
T2 sequence (whole entry): T1 sequence (P08908 whole entry)
The assay can be described thus: Potency index, ratio of Ki for N-Methyllaurotetanine to Ki for test compound against human recombinant 5-HT1A receptor expressed in CHO cell membranes by radioligand binding assay.

5-hydroxytryptamine receptor 7, sequence (P34969 whole entry): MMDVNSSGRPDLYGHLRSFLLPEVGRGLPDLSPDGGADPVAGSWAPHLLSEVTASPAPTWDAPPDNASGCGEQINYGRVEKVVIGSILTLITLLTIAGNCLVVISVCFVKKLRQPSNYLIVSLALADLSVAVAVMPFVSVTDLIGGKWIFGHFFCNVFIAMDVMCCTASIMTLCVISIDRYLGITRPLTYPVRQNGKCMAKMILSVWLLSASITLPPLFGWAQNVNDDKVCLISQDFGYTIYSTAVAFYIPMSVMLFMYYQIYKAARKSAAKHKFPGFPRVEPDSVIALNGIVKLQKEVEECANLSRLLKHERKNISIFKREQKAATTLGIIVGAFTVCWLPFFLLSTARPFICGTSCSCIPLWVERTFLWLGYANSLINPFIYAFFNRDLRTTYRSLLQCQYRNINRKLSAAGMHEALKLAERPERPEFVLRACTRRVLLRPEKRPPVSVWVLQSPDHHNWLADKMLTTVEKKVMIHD

On to `CCCCCOc1cc2c(cc1OC)-c1c(OC)c(OC)cc3c1[C@H](C2)N(C)CC3`, for which the Ratio Ki is 10 in the assay listed under Homo sapiens [1] and 7 in the assay listed under Homo sapiens [4]. The figures for the inhibition constant Ki in assay [2], in assay [3] and in assay [5] were 24 nM, 239 nM and 179 nM, respectively.
Take `COc1cc2c(cc1OC)-c1c(OC)c(OC)cc3c1[C@H](C2)N(C)CC3` [GLAUCINE]: the Ratio Ki in the assay filed under Homo sapiens [1] is 22; in the assay listed under Homo sapiens [4], 4. Besides, the Ki in assay [2] came out at 43 nM; in assay [3] it was 966 nM; in assay [5] it was 171 nM.
With `COc1cc2c(cc1OCc1ccccc1)C[C@H]1c3c(cc(OC)c(OC)c3-2)CCN1C`, the Ratio Ki in the assay filed under Homo sapiens [1] was 9; in assay [6], 3; in the assay filed under Homo sapiens [4] it was 4. Besides, the Ki in assay [2] turned out to be 23 nM; in assay [3], 216 nM; in assay [5], 92 nM.
In the case of `CCOc1cc2c(cc1OC)-c1c(OC)c(OC)cc3c1[C@H](C2)N(C)CC3`, the Ratio Ki in the assay listed under Homo sapiens [1] is 12; in the assay listed under Homo sapiens [4] it was 7. Further, the figures for the Ki in assay [2], in assay [3] and in assay [5] were 69 nM, 818 nM and 506 nM, respectively.
In the case of `CCCC(C)Oc1cc2c(cc1OC)-c1c(OC)c(OC)cc3c1[C@H](C2)N(C)CC3` (stereo not given in full), the Ratio Ki in the assay listed under Homo sapiens [1] was 5; in assay [6], under 3; in the assay filed under Homo sapiens [4], 5. Moreover, the inhibitory constant (Ki) in assay [2] was 24 nM; in assay [3], 244 nM; in assay [5], 117 nM.
As for `COc1cc2c(cc1OCC1CC1)C[C@H]1c3c(cc(OC)c(OC)c3-2)CCN1C`, the inhibitory constant (Ki) in assay [2] came out at 22 nM; in assay [3] it was 582 nM; in assay [5], 224 nM. The Ratio Ki in the assay listed under Homo sapiens [4] was determined as 10.
Take `CCCCCCOc1cc2c(cc1OC)-c1c(OC)c(OC)cc3c1[C@H](C2)N(C)CC3`: the Ratio Ki stood at 10 in the assay listed under Homo sapiens [1] and 5 in the assay filed under Homo sapiens [4]. Moreover, the values for the Ki in assay [2], in assay [3] and in assay [5] were 58 nM, 570 nM and 273 nM, respectively.
`COc1cc2c(cc1OC(C)C)C[C@H]1c3c(cc(OC)c(OC)c3-2)CCN1C`: the figures for the Ratio Ki in the assay listed under Homo sapiens [1] and in the assay listed under Homo sapiens [4] were 27 and 20, respectively. Further, the Ki in assay [2] is 28 nM; in assay [3] it was 750 nM; in assay [5] it was 563 nM.
Consider `COc1cc2c(cc1OCc1ccc(Br)cc1)C[C@H]1c3c(cc(OC)c(OC)c3-2)CCN1C`, for which the Ratio Ki in the assay listed under Homo sapiens [1] was 8; in assay [6], 3; in the assay filed under Homo sapiens [4], 2. Also, the results for the Ki in assay [2], in assay [3] and in assay [5] were 54 nM, 418 nM and 102 nM, respectively.
As to `C=CCOc1cc2c(cc1OC)-c1c(OC)c(OC)cc3c1[C@H](C2)N(C)CC3`, the Ratio Ki in the assay listed under Homo sapiens [1] and in the assay filed under Homo sapiens [4] was 18 throughout. The Ki amounted to 20 nM in assay [2], 383 nM in assay [3] and 361 nM in assay [5].
With `COc1cc2c(cc1OC1CCCCC1)C[C@H]1c3c(cc(OC)c(OC)c3-2)CCN1C`, the Ratio Ki was 11 in the assay listed under Homo sapiens [1], under 3 in assay [6] and 3 in the assay filed under Homo sapiens [4]. For the same molecule, the Ki amounted to 50 nM in assay [2], 570 nM in assay [3] and 163 nM in assay [5].
For the molecule `CCC(C)Oc1cc2c(cc1OC)-c1c(OC)c(OC)cc3c1[C@H](C2)N(C)CC3` (stereo not given in full), the Ratio Ki is 7 in the assay listed under Homo sapiens [1], under 3 in assay [6] and 7 in the assay filed under Homo sapiens [4]. For the same molecule, the inhibitory constant (Ki) came to 34 nM in assay [2], 377 nM in assay [3] and 244 nM in assay [5].
`COc1cc2c(cc1OCCF)C[C@H]1c3c(cc(OC)c(OC)c3-2)CCN1C`: the figures for the Ratio Ki in the assay filed under Homo sapiens [1] and in the assay filed under Homo sapiens [4] were 22 and 16, respectively. Moreover, the Ki in assay [2] came to 52 nM; in assay [3], 1160 nM; in assay [5], 845 nM.
As to `CCCCOc1cc2c(cc1OC)-c1c(OC)c(OC)cc3c1[C@H](C2)N(C)CC3`, the Ratio Ki in the assay listed under Homo sapiens [1] is 18; in the assay listed under Homo sapiens [4] it was 10. The Ki in assay [2] was 15 nM; in assay [3] it was 268 nM; in assay [5], 153 nM.
In the case of `CCCCC(C)Oc1cc2c(cc1OC)-c1c(OC)c(OC)cc3c1[C@H](C2)N(C)CC3` (stereo not given in full), the Ratio Ki in the assay filed under Homo sapiens [1] is 12; in assay [6] it was under 3; in the assay filed under Homo sapiens [4], 4. In addition, the Ki in assay [2] is 38 nM; in assay [3], 446 nM; in assay [5] it was 152 nM.
